Laboratory results: US12643882B2, “Inhibitors of human respiratory syncytial virus and metapneumovirus” (priority 2022, dated 2026)
Like-named read-outs stand apart in the source and are kept apart here.

Columns and labels:
hMPV-GFP virus = experiment: microbe, parasite or virus in culture; type: cell-based, human metapneumovirus
Summary of the method: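 Antiviral IC50 was derived from imaging counts of GFP-expressing cells, with CC50 from a same-well CellTiter-Glo read, both by 4-parameter logistic fitting. VERO cells plus hMPV-GFP (MOI 1.25) were exposed 48 h at 37 °C to 10-point 3-fold compound dilutions (typical final 40,300–2 nM).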

RSV-A2-GFP virus = experiment: microbe, parasite or virus in culture; type: cell-based, Human Respiratory Syncytial Virus
Summary of the method: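 IC50 (GFP-expressing cell counts by Acumen imaging) and CC50 (same-well CellTiter-Glo) were obtained by 4-parameter logistic fitting. Compounds were tested in 10-point 3-fold series for 96 h at 37° C, 5% CO2. Thawed Calu-1 ARF cells were infected at MOI 1.2 with GFP-reporter RSV-A2 in 2% FBS DMEM.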

[1] = VERO cells infected with hMPV-GFP, 48 hrs, GFP-expressing cells counted, read-out: hMPV EC50
[2] = Calu-1 cells infected with RSV-A2-GFP, 96 hrs, GFP-expressing cells counted, read-out: RSV EC50
[3] = human metapneumovirus, Vero, 48 h, read-out: hMPV EC50, VERO cells infected with hMPV-GFP, 48 hrs, GFP-expressing cells counted
[4] = human respiratory syncytial virus, Calu-1, 96 h, read-out: RSV EC50, Calu-1 cells infected with RSV-A2-GFP, 96 hrs, GFP-expressing cells counted

SMILES | EC50 (hMPV-GFP virus; [1]) [nM] | EC50 (RSV-A2-GFP virus; [2]) [nM] | EC50 (hMPV-GFP virus; [3]) [nM] | EC50 (RSV-A2-GFP virus; [4]) [nM]
CC(C)(N)c1cc(O[C@H]2[C@@H]3CN(C(=O)c4cc(-c5ncccn5)ns4)C[C@@H]32)nc(-c2ccc(F)cc2)c1 [Example 77, ((1R,5S,6s)-6-((4-(2-aminopropan-2-yl)-6-(4-fluorophenyl)pyridin-2-yl)oxy)-3-azabicyclo[3.1.0]hexan-3-yl)(3-(pyrimidin-2-yl)isothiazol-5-yl)methanone] | > 100 | < 10 | – | –
Cc1nc(-c2ncccn2)oc1C(=O)N1C[C@@H]2[C@H](C1)[C@H]2Oc1cc(C(C)(C)N)cc(-c2ccc(F)cc2)n1 [Example 78, ((1R,5S,6s)-6-((4-(2-aminopropan-2-yl)-6-(4-fluorophenyl)pyridin-2-yl)oxy)-3-azabicyclo[3.1.0]hexan-3-yl)(4-methyl-2-(pyrimidin-2-yl)oxazol-5-yl)methanone] | – | – | > 100 | 10 to 100
Cc1nn(-c2ncccn2)c(F)c1C(=O)N1C[C@@H]2[C@H](C1)[C@H]2Oc1cc(C(C)(C)N)cc(-c2ccc(F)cc2)n1 [Example 79, ((1R,5S,6s)-6-((4-(2-aminopropan-2-yl)-6-(4-fluorophenyl)pyridin-2-yl)oxy)-3-azabicyclo[3.1.0]hexan-3-yl)(5-fluoro-3-methyl-1-(pyrimidin-2-yl)-1H-pyrazol-4-yl)methanone] | – | – | > 100 | < 10
Cc1nn(-c2ncccn2)cc1C(=O)N1C[C@@H]2[C@H](C1)[C@H]2Oc1cc(C(C)(C)N)cc(-c2ccc(F)c(F)c2)n1 [Example 80, ((1R,5S,6s)-6-((4-(2-aminopropan-2-yl)-6-(3,4-difluorophenyl)pyridin-2-yl)oxy)-3-azabicyclo[3.1.0]hexan-3-yl)(3-methyl-1-(pyrimidin-2-yl)-1H-pyrazol-4-yl)methanone] | – | – | 10 to 100 | < 10
Cc1nn(-c2ncccn2)cc1C(=O)N1C[C@@H]2[C@H](C1)[C@H]2Oc1cc(C(C)(C)N)cc(-c2cc(F)c(F)cc2F)n1 [Example 81, ((1R,5S,6s)-6-((4-(2-aminopropan-2-yl)-6-(2,4,5-trifluorophenyl)pyridin-2-yl)oxy)-3-azabicyclo[3.1.0]hexan-3-yl)(3-methyl-1-(pyrimidin-2-yl)-1H-pyrazol-4-yl)methanone] | 10 to 100 | < 10 | – | –
Cc1nn(-c2ncccn2)cc1C(=O)N1C[C@@H]2[C@H](C1)[C@H]2Oc1cc(C(C)(C)N)cc(-c2cc(F)c(F)c(F)c2)n1 [Example 82, ((1R,5S,6s)-6-((4-(2-aminopropan-2-yl)-6-(3,4,5-trifluorophenyl)pyridin-2-yl)oxy)-3-azabicyclo[3.1.0]hexan-3-yl)(3-methyl-1-(pyrimidin-2-yl)-1H-pyrazol-4-yl)methanone] | 10 to 100 | < 10 | – | –
Cc1nn(-c2ncccn2)cc1C(=O)N1C[C@@H]2[C@H](C1)[C@H]2Oc1cc(C(C)(C)N)cc(-c2ccc(F)c(Cl)c2)n1 [Example 83, ((1R,5S,6s)-6-((4-(2-aminopropan-2-yl)-6-(3-chloro-4-fluorophenyl)pyridin-2-yl)oxy)-3-azabicyclo[3.1.0]hexan-3-yl)(3-methyl-1-(pyrimidin-2-yl)-1H-pyrazol-4-yl)methanone] | > 100 | < 10 | – | –
Cc1nn(-c2ncccn2)cc1C(=O)N1C[C@@H]2[C@H](C1)[C@H]2Oc1cc(C(C)(C)N)cc(-c2ccc(Cl)c(F)c2)n1 [Example 84, ((1R,5S,6s)-6-((4-(2-aminopropan-2-yl)-6-(4-chloro-3-fluorophenyl)pyridin-2-yl)oxy)-3-azabicyclo[3.1.0]hexan-3-yl)(3-methyl-1-(pyrimidin-2-yl)-1H-pyrazol-4-yl)methanone] | > 100 | < 10 | – | –
Cc1nn(-c2ncccn2)cc1C(=O)N1C[C@@H]2[C@H](C1)[C@H]2Oc1cc(C(C)(C)N)cc(-c2ccc(Cl)cc2)n1 [Example 85, ((1R,5S,6s)-6-((4-(2-aminopropan-2-yl)-6-(4-chlorophenyl)pyridin-2-yl)oxy)-3-azabicyclo[3.1.0]hexan-3-yl)(3-methyl-1-(pyrimidin-2-yl)-1H-pyrazol-4-yl)methanone] | 10 to 100 | < 10 | – | –
Cc1nn(-c2ncccn2)cc1C(=O)N1C[C@@H]2[C@H](C1)[C@H]2Oc1cc(C(C)(C)N)cc(-c2ccc(C(F)(F)F)cc2)n1 [Example 86, ((1R,5S,6s)-6-((4-(2-aminopropan-2-yl)-6-(4-(trifluoromethyl)phenyl)pyridin-2-yl)oxy)-3-azabicyclo[3.1.0]hexan-3-yl)(3-methyl-1-(pyrimidin-2-yl)-1H-pyrazol-4-yl)methanone] | 10 to 100 | < 10 | – | –
Cc1nn(-c2ncccn2)cc1C(=O)N1C[C@@H]2[C@H](C1)[C@H]2Oc1cc(C(C)(C)N)cc(-c2ccc(C(F)(F)F)nc2)n1 [Example 87, ((1R,5S,6s)-6-((4-(2-aminopropan-2-yl)-6′-(trifluoromethyl)-[2,3′-bipyridin]-6-yl)oxy)-3-azabicyclo[3.1.0]hexan-3-yl)(3-methyl-1-(pyrimidin-2-yl)-1H-pyrazol-4-yl)methanone] | > 100 | < 10 | – | –
COc1cc(C(F)(F)F)ccc1-c1cc(C(C)(C)N)cc(O[C@H]2[C@@H]3CN(C(=O)c4cn(-c5ncccn5)nc4C)C[C@@H]32)n1 [Example 88, ((1R,5S,6s)-6-((4-(2-aminopropan-2-yl)-6-(2-methoxy-4-(trifluoromethyl)phenyl)pyridin-2-yl)oxy)-3-azabicyclo[3.1.0]hexan-3-yl)(3-methyl-1-(pyrimidin-2-yl)-1H-pyrazol-4-yl)methanone] | > 100 | < 10 | – | –
Cc1nn(-c2ncccn2)cc1C(=O)N1C[C@@H]2[C@H](C1)[C@H]2Oc1cc(C(C)(C)N)cc(-c2cc3ccccc3[nH]2)n1 [Example 89, ((1R,5S,6s)-6-((4-(2-aminopropan-2-yl)-6-(1H-indol-2-yl)pyridin-2-yl)oxy)-3-azabicyclo[3.1.0]hexan-3-yl)(3-methyl-1-(pyrimidin-2-yl)-1H-pyrazol-4-yl)methanone] | > 100 | < 10 | – | –
Cc1nn(-c2ncccn2)cc1C(=O)N1C[C@@H]2[C@H](C1)[C@H]2Oc1cc(C(C)(C)N)cc(C2=CCC(C)(C)CC2)n1 [Example 90, ((1R,5S,6s)-6-((4-(2-aminopropan-2-yl)-6-(4,4-dimethylcyclohex-1-en-1-yl)pyridin-2-yl)oxy)-3-azabicyclo[3.1.0]hexan-3-yl)(3-methyl-1-(pyrimidin-2-yl)-1H-pyrazol-4-yl)methanone] | > 100 | < 10 | – | –
CC(C)(N)c1cc(O[C@H]2[C@@H]3CN(C(=O)c4cn(-c5ncccn5)nc4C(F)F)C[C@@H]32)nc(-c2ccc(F)c(F)c2)c1 [Example 91, ((1R,5S,6s)-6-((4-(2-aminopropan-2-yl)-6-(3,4-difluorophenyl)pyridin-2-yl)oxy)-3-azabicyclo[3.1.0]hexan-3-yl)(3-(difluoromethyl)-1-(pyrimidin-2-yl)-1H-pyrazol-4-yl)methanone] | > 100 | < 10 | – | –
CC(C)(N)c1cc(O[C@H]2[C@@H]3CN(C(=O)c4cn(-c5ncccn5)nc4C(F)(F)F)C[C@@H]32)nc(-c2ccc(F)c(F)c2)c1 [Example 92, ((1R,5S,6s)-6-((4-(2-aminopropan-2-yl)-6-(3,4-difluorophenyl)pyridin-2-yl)oxy)-3-azabicyclo[3.1.0]hexan-3-yl)(1-(pyrimidin-2-yl)-3-(trifluoromethyl)-1H-pyrazol-4-yl)methanone] | > 100 | < 10 | – | –
CC(C)(N)c1cc(O[C@H]2[C@@H]3CN(C(=O)c4cn(-c5ncccn5)nc4C(F)(F)F)C[C@@H]32)nc(-c2ccc(C(F)(F)F)cc2)c1 [Example 93, ((1R,5S,6s)-6-((4-(2-aminopropan-2-yl)-6-(4-(trifluoromethyl)phenyl)pyridin-2-yl)oxy)-3-azabicyclo[3.1.0]hexan-3-yl)(1-(pyrimidin-2-yl)-3-(trifluoromethyl)-1H-pyrazol-4-yl)methanone] | > 100 | < 10 | – | –
Cc1nn(-c2ncccn2)cc1C(=O)N1C[C@@H]2[C@H](C1)[C@H]2Oc1cc(C(C)(C)N)cc(-n2ncc3c(Cl)cccc32)n1 [Example 94, ((1R,5S,6s)-6-((4-(2-aminopropan-2-yl)-6-(4-chloro-1H-indazol-1-yl)pyridin-2-yl)oxy)-3-azabicyclo[3.1.0]hexan-3-yl)(3-methyl-1-(pyrimidin-2-yl)-1H-pyrazol-4-yl)methanone] | – | – | > 100 | < 10
CC(C)(N)c1cc(O[C@H]2[C@@H]3CN(C(=O)c4cn(-c5ncccn5)nc4CO)C[C@@H]32)nc(-c2ccc(F)c(F)c2)c1 [Example 95, ((1R,5S,6s)-6-((4-(2-aminopropan-2-yl)-6-(3,4-difluorophenyl)pyridin-2-yl)oxy)-3-azabicyclo[3.1.0]hexan-3-yl)(3-(hydroxymethyl)-1-(pyrimidin-2-yl)-1H-pyrazol-4-yl)methanone] | – | – | > 100 | < 10
Cc1nc(-c2ncccn2)sc1C(=O)N1C[C@@H]2[C@H](C1)[C@H]2Oc1cc(C(C)(C)N)cc(-c2ccc(F)cc2F)n1 [Example 97, ((1R,5S,6s)-6-((4-(2-aminopropan-2-yl)-6-(2,4-difluorophenyl)pyridin-2-yl)oxy)-3-azabicyclo[3.1.0]hexan-3-yl)(4-methyl-2-(pyrimidin-2-yl)thiazol-5-yl)methanone] | – | – | 10 to 100 | < 10
